Results taken from US20190002915A1, “COMPOSITIONS AND METHODS FOR REGULATABLE ANTIBODY EXPRESSION” (The Trustees of the University of Pennsylvania, priority 2015, published 2019).

Experiments:
[1] = IM AAV8 Z12i-immunoadhesin plus TF vectors in RAG KO mice, AP22594 induction, protein A ELISA; type: in vivo; conditions: post AAV8 administration
Method: RAG KO mice were purchased from Jackson labs. Z12i-2014A and TF plasmids were packaged into AAV8 vectors using triple transfection method. Vectors were titered using qPCR. […] First induction with AP22594 was carried out on day 13 after AAV8 administration. AP22594 was administered IP at a dose of 1 mg/kg. On day 21 post AAV8 administration, orbital bleeds were collected and the level of circulating 2011A antibody was measured by protein A ELISA. The data is presented on FIG. 8.

[2] = tested on: Z12i promoter ffLuc reporter in HEK293 cells; experiment: ffLuc reporter induction under Z12i promoter in transfected HEK293 cells; type: cell-based; conditions: TF cis-plasmids plus Z12i-ffLuc reporter, rapamycin versus rapalog, all TF systems tested
Method: Cis plasmid constructs having the following elements, from 5′ to 3′ were constructed: promoter, nuclear localization signal (NLS), FRAPL (lipid kinase homolog having rapamycin binding domain), p65 of human NF-κB (transcriptional activation domain), IRES, zinc finger (DNA binding domain), 2 or 3 copies of FK506 binding protein as shown below, and a poly A.
These cis plasmids were tested for in HEK293 cells for the ability to induce expression of ffLuc reporter gene under the control of Z12i promoter, consisting of 12 ZFHD binding sites followed by minimal IL2 promoter. Briefly, HEK293 cells were transfected with cis-plasmids along with the reporter constructs. 24-72 hours post transfection, cells were treated with various concentrations of either rapamycin (sirolimus) or rapalog AP22594 as indicated in FIG. 5. Expression of ffLuc was assessed using dual luciferase detection kit from Promega according to manufacturer's instructions. […] Antibodies normally are secreted into supernatant buy the transfected cells. In this experiment, transfection was performed using lipofectamine according to the manufacturer's instructions, and induction was carried out the next day after transfection using indicated amounts of rapalog. At 72 hours post transfection, supernatants were harvested and expression of anti-SIV antibody was assessed using antigen specific ELISA or protein A ELISA. […]

NHP eyes = experiment: Subretinal AAV8 regulatable antibody expression in NHP eyes (ELISA); type: in vivo, Macaca mulatta (rhesus monkeys); conditions: rapamycin IV
Method: For this experiment a 3 year old male Macaca mulatta (rhesus monkeys) was purchased from Covance Research Products, Inc.
For subretinal (SR) vector injections, a needle was inserted through a sclerotomy 2 mm posterior to the limbus at the 2 or 10 o'clock position. It was then advanced through the vitreous to penetrate the retina in the posterior pole. Under microscopic control, up to 100 μL of anterior chamber fluid was removed and 150 μL of viral vector solution diluted in phosphate buffered saline (PBS) was injected into the subretinal space, thereby raising a dome-shaped retinal detachment (bleb). The detachment covered a small fraction (approximately ⅛th) of the area of the retina in the macula. The NHP received AAV8 vectors injected subretinally into the left (OS) and right (OD) eyes. The two vectors that were injected were: AAV2/8.CMV.TF1Nc (alternate name for AAV2/8.CMV.TF) and AAV2/8.Z12i.AbH.FF2A.AbL.BGH. The vectors were mixed at 1:1 ratio at 10^11 GC and delivered SR in a total volume of 150 μL.
Macaques were induced at various times following the SR vector injection. Rapamycin (2 mg/kg) was delivered IV in a solution of 1.2% Tween 80, 27.1% Polyethylene Glycol, 71.7% Nuclease Free Water. At designated times post vector delivery, a tap was performed on the OD eye (baseline) and the NHP then injected IV with 2 mg/kg rapamycin. […]

nasal airways = experiment: Intranasal AAV9 regulatable ffLuc expression in mice after rapamycin induction (IVIS imaging); type: in vivo, C57BL/6 mice
Method: AAV2/9.Z12i.ffLuc and AAV2/9.CMV.Tf were used in this example. These vectors were prepared as described in S J Chen et al, Hu Gene Therapy, 24: 270-278 (August 2013). AAV2/9.Z12i.ffLuc contains:
C57BL/6 mice (6 to 8 weeks of age) were purchased from Charles River Laboratories (Wilmington, Mass.) and kept under pathogen-free conditions at the Animal Facility of the Translational Research Laboratories. Mice were anesthetized using an intraperitoneal (IP) injection of ketamine/xylazine. For vector administrations, mice were inoculated intranasally (IN) with […] in the right and left nostril for a total dose of 10^11 genome copies (GC) in 25 μL. All animal procedures were approved by the Institutional Animal Care and Use Committees of the University of Pennsylvania.
Topical (IN) application: mice were anaesthetized with ketamine/xylazine and 5 mins later 5 μL of rapamycin solution for a total dose of 10 mg/kg was delivered to the right and left nostril IN. Systemic (IP) application: mice were physically restrained and injected IP with 50 μL of a 1 mg/mL rapamycin solution.
Mice were anaesthetized with ketamine/xylazine and 5 mins later 10 μL of 15 mg/ml D-luciferin (Caliper, USA) was delivered to the right and left nostril IN. Five mins later mice were imaged using the IVIS® Xenogen imaging system [Perkin-Elmer]. Quantitation of signal was calculated using the Living Image® 3.0 Software.
The level of gene expression achieved in the nasal airways following rapamycin induction was examined. Briefly, C57B1/6 mice (n=5/group) were dosed with 10^11 GC of both AAV2/9.Z12i.ffLuc and AAV2/9.CMV.Tf in a volume of 25 μL (12.5 μL per nostril). As negative controls, groups of mice were dosed with a) AAV2/9.Z12i.ffLuc alone, b) AAV2/9.CMV.Tf alone and c) PBS mice. As a positive control for the maximal expression of ffLuc, mice (n=5) were injected with AAV2/9.CMV.ffluc. To maximize the safety of the inducible vector system we opted to restrict expression to the nasal epithelium by delivering rapamycin topically (directly to the nose) or systemically (IP).

[3] = stated as consistent with the time frame of decline; cited from earlier work
[4] = three separate IN rapamycin inductions over three months

Molecule: COC1CC2CCC(C)C(O)(O2)C(=O)C(=O)N2CCCCC2C(=O)OC(C(C)CC2CCC(O)C(OC)C2)CC(=O)C(C)C=C(C)C(O)C(OC)C(=O)C(C)CC(C)C=CC=CC=C1C (stereo not drawn) [AP22594, 28-epi-rapamycin]
- day induced expression returned to barely detectable [1]: 49 days
- day induced expression started to decline [1]: 35 days
- day of peak induced expression ([1]; data not shown): 28 days
- induction of transgene (ffLuc) expression [2]: comparable levels of induction of transgene expression

Molecule: CO[C@H]1C[C@@H]2CC[C@@H](C)[C@@](O)(O2)C(=O)C(=O)N2CCCC[C@H]2C(=O)O[C@H]([C@H](C)C[C@@H]2CC[C@@H](O)[C@H](OC)C2)CC(=O)[C@H](C)/C=C(\C)[C@@H](O)[C@@H](OC)C(=O)[C@H](C)C[C@H](C)/C=C/C=C/C=C/1C [rapamycin]
- time to wane to background undetectable levels (NHP eyes): ≤ 3 months
- peak of antibody expression post induction (NHP eyes; several inductions over 4 years): 14 days
- time for ffLuc expression to reach background levels (nasal airways; IN or IP rapamycin induction): ≤ 7 days
- time until which ffLuc expression remained stable (nasal airways; IN or IP rapamycin induction): 48 h
- time to maximal ffLuc expression after induction (nasal airways; IN or IP rapamycin induction, AAV2/9.Z12i.ffLuc plus AAV2/9.CMV.Tf IN): ≤ 24 h
- signs of behavioral distress (nasal airways; rapamycin delivered to the nose or systemically): did not exhibit any signs of behavioral distress
- time at which expression began to decline (nasal airways; [4]): 72 h
- time to maximal induction (nasal airways; [4]): ≤ 24 h
- time to which induction was stable (nasal airways; [4]): 48 h

B1: 2011A antibody: immunoadhesin expressed from the Z12i construct in AAV8 (protein)
chain: EVQLLESGPGLVKPSETLSLTCAVSGLSISSDFSWAWIRQTPGKALEYVGYIRGNTGDTYYNPSLKSRLTISKDTSKNQIYLNLSSVTAGDAAVYYCARDRVCDDDYGYYYTEVCFGLDSWGQGIVVTVSSGGGGSGGGGSGGGGSAELVMTQSPLSLSVAPGQTASISCRSSQSLDYANGNTYLSWFHQRPGQPPRRLIYQISNRDSGVPDRFSGSGAGTEFTLRISRMESDDVGIYYCGQGTTFPRTFGQGTKVEIKTCGGGSKPPTCPPCTSPELLGGPSVFLFPPKPKDTLMISRTPEVTCVVVDVSQEDPDVKFNWYVNGAEVHHAQTKPRETQYNSTYRVVSVLTVTHQDWLNGKEYTCKVSNKALPAPIQKTISKDKGQPREPQVYTLPPSREELTKNQVSLTCLVKGFYPSDIVVEWESSGQPENTYKTTPPVLDSDGSYFLYSKLTVDKSRWQQGNVFSCSVMHEALHNHYTQKSLSLSPGK
- antibody half-life [3]: 1-2 weeks
